Values of other authors as cited in US20200038413A1, “METHODS OF TREATING PARKINSON'S DISEASE USING AMINOSTEROL COMPOSITIONS” (Enterin, Inc., priority 2018, published 2020).
Where a name gives a salt, the structure may show the parent alone.

How the values were obtained:
PD population = settings: short term placebo controlled trial, PD constipation; cited from earlier work
[1] = single and repeat intravenous administration, alone or in combination; cited from earlier work

Structure (SMILES)	proportion of those treated in whom effective (PD population)	well tolerated dose [1]
CCCCC(F)(F)[C@@]1(O)CC[C@H]2[C@@H](CC(=O)[C@@H]2CCCCCCC(=O)O)O1 [Lubiprostone]	about 50%	–
CC(C)[C@@H](CC[C@@H](C)[C@H]1CC[C@H]2[C@@H]3[C@H](O)C[C@H]4C[C@@H](NCCCNCCCCN)CC[C@]4(C)[C@H]3CC[C@]12C)OS(=O)(=O)O [Squalamine dilactate salt]	–	at least 300 mg/m^2
